From PubChem BioAssay (NCI)
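Briefly, cells in 96-well plates were exposed to five compound concentrations for 48 h, and endpoints were estimated by linear interpolation. At the TGI there is no net growth.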

Tests used:
Assay in all cases: NCI tumour cell line growth inhibition, 48 h
[1] = tested on: A498 renal
[2] = tested on: HL-60(TB) leukemia
[3] = tested on: MOLT-4 leukemia
[4] = tested on: SK-MEL-2 melanoma
[5] = tested on: OVCAR-3 ovarian
[6] = tested on: U251 CNS
[7] = tested on: SW-620 colon
[8] = tested on: SK-OV-3 ovarian
[9] = tested on: KM20L2 colon
[10] = tested on: LOX IMVI melanoma
[11] = tested on: CCRF-CEM leukemia
[12] = tested on: HT29 colon
[13] = tested on: SF-295 CNS
[14] = tested on: M14 melanoma
[15] = tested on: UO-31 renal
[16] = tested on: NCI-H226 lung
[17] = tested on: M19-MEL melanoma
[18] = tested on: RPMI-8226 leukemia
[19] = tested on: CAKI-1 renal
[20] = tested on: OVCAR-4 ovarian
[21] = tested on: LXFL 529 NSCLC
[22] = tested on: ACHN renal
[23] = tested on: NCI-H23 lung
[24] = tested on: RXF 393 renal
[25] = tested on: COLO 205 colon
[26] = tested on: SN12C renal
[27] = tested on: SNB-78 CNS
[28] = tested on: OVCAR-5 ovarian
[29] = tested on: SF-539 CNS
[30] = tested on: TK-10 renal
[31] = tested on: OVCAR-8 ovarian
[32] = tested on: K-562 leukemia
[33] = tested on: UACC-257 melanoma
[34] = tested on: SNB-75 CNS
[35] = tested on: MALME-3M melanoma
[36] = tested on: EKVX NSCLC
[37] = tested on: DLD-1 colon
[38] = tested on: KM12 colon
[39] = tested on: HOP-62 NSCLC
[40] = tested on: HOP-92 NSCLC
[41] = tested on: UACC-62 melanoma
[42] = tested on: NCI-H460 lung
[43] = tested on: HCC-2998 colon
[44] = tested on: HOP-18 NSCLC
[45] = tested on: SNB-19 CNS
[46] = tested on: HCT-15 colon
[47] = tested on: XF 498 CNS
[48] = tested on: HCT-116 colon
[49] = tested on: SK-MEL-5 melanoma
[50] = tested on: A549 NSCLC
[51] = tested on: DMS 114 small cell lung
[52] = tested on: IGROV1 ovarian
[53] = tested on: 786-0 renal
[54] = tested on: SR leukemia
[55] = tested on: DMS 273 small cell lung
[56] = tested on: SK-MEL-28 melanoma
[57] = tested on: SF-268 CNS
[58] = tested on: NCI-H522 lung

In the case of `COc1nc(NC2OC(COC(C)=O)C(OC(C)=O)C(OC(C)=O)C2OC(C)=O)c2c(OC(C)=O)c(C)c(=O)oc2n1` (centres undefined), the TGI [1] is reported as 3.18 µM, the TGI [2] is reported as > 100 µM and the TGI [3] is reported as > 100 µM. The TGI [4] was > 100 µM, the TGI [5] was > 100 µM and the TGI [6] was > 100 µM. For the same compound, the TGI [7] was > 100 µM, the TGI [8] was > 100 µM and the TGI [9] was > 100 µM. For the same compound, the TGI [10] was > 100 µM, the TGI [11] was > 100 µM and the TGI [12] was > 100 µM. For the same compound, the TGI [13] was > 100 µM, the TGI [14] was > 100 µM and the TGI [15] was > 100 µM. For the same compound, the TGI [16] was > 100 µM, the TGI [17] was > 100 µM and the TGI [18] was > 100 µM. The TGI [19] was > 100 µM, the TGI [20] was > 100 µM and the TGI [21] was > 100 µM. The TGI [22] was 3.16 µM, the TGI [23] was > 100 µM and the TGI [24] was > 100 µM. For the same compound, the TGI [25] was > 100 µM, the TGI [26] was > 100 µM and the TGI [27] was > 100 µM. The TGI [28] was > 100 µM, the TGI [29] was > 100 µM and the TGI [30] was > 100 µM. For the same compound, the TGI [31] was > 100 µM, the TGI [32] was > 100 µM and the TGI [33] was > 100 µM. For the same compound, the TGI [34] was > 100 µM, the TGI [35] was > 100 µM and the TGI [36] was > 100 µM. The TGI [37] was > 100 µM, the TGI [38] was > 100 µM and the TGI [39] was > 100 µM. The TGI [40] was > 100 µM, the TGI [41] was > 100 µM and the TGI [42] was 3.15 µM. The TGI [43] was > 100 µM, the TGI [44] was > 100 µM and the TGI [45] was > 100 µM. For the same compound, the TGI [46] was > 100 µM, the TGI [47] was > 100 µM and the TGI [48] was > 100 µM. For the same compound, the TGI [49] was > 100 µM, the TGI [50] was > 100 µM and the TGI [51] was > 100 µM. For the same compound, the TGI [52] was > 100 µM and the TGI [53] was > 100 µM.

In the case of `O=C1C(Cl)C(c2cc(Br)cc(Br)c2O)N1n1cnc2ccccc2c1=O` (centres undefined), the TGI [54] is reported as 35.1 µM, the TGI [2] is reported as 48 µM and the TGI [3] is reported as 30.1 µM. For the same compound, the TGI [4] was 46.7 µM, the TGI [5] was 79.4 µM and the TGI [6] was 31.8 µM. The TGI [7] was > 100 µM, the TGI [8] was 42.3 µM and the TGI [55] was > 100 µM. For the same compound, the TGI [9] was > 100 µM, the TGI [10] was 30.4 µM and the TGI [11] was 49.5 µM. The TGI [12] was > 100 µM, the TGI [13] was 54.2 µM and the TGI [14] was 42.2 µM. It also gave a TGI [15] of 76.1 µM, a TGI [16] of 61.8 µM and a TGI [17] of 62.2 µM. The TGI [18] was 37.4 µM, the TGI [19] was 88.3 µM and the TGI [56] was 70.5 µM. For the same compound, the TGI [57] was > 100 µM, the TGI [20] was 43.1 µM and the TGI [21] was > 100 µM. The TGI [22] was > 100 µM, the TGI [23] was 86.3 µM and the TGI [24] was 63.7 µM. The TGI [25] was 93.2 µM, the TGI [26] was 91.2 µM and the TGI [27] was > 100 µM. For the same compound, the TGI [28] was 71.8 µM, the TGI [30] was > 100 µM and the TGI [31] was 94.9 µM. The TGI [32] was 71.5 µM, the TGI [33] was 45.3 µM and the TGI [34] was 85.6 µM. The TGI [35] was 62.9 µM, the TGI [36] was 85.9 µM and the TGI [37] was > 100 µM. The TGI [38] was 92.5 µM, the TGI [39] was > 100 µM and the TGI [41] was 49.3 µM. The TGI [42] was > 100 µM, the TGI [43] was > 100 µM and the TGI [44] was 83.8 µM. The TGI [45] was 89.3 µM, the TGI [46] was > 100 µM and the TGI [47] was 61.2 µM. The TGI [48] was 36.2 µM, the TGI [49] was 35.6 µM and the TGI [58] was 49.1 µM. The TGI [50] was > 100 µM, the TGI [52] was 70.7 µM and the TGI [53] was > 100 µM.

In the case of `CCCc1nc(N)nc(C(=O)Nc2cccc(C(F)(F)F)c2)c1CC`, the TGI [1] is reported as > 100 µM, the TGI [2] is reported as > 100 µM and the TGI [3] is reported as > 100 µM. For the same compound, the TGI [4] was > 100 µM, the TGI [5] was > 100 µM and the TGI [6] was > 100 µM. For the same compound, the TGI [7] was > 100 µM, the TGI [55] was > 100 µM and the TGI [9] was > 100 µM. The TGI [10] was > 100 µM, the TGI [12] was > 100 µM and the TGI [13] was > 100 µM. The TGI [14] was > 100 µM, the TGI [15] was > 100 µM and the TGI [16] was > 100 µM. For the same compound, the TGI [17] was > 100 µM, the TGI [18] was > 100 µM and the TGI [19] was > 100 µM. The TGI [56] was > 100 µM, the TGI [57] was > 100 µM and the TGI [20] was > 100 µM. The TGI [22] was > 100 µM, the TGI [23] was > 100 µM and the TGI [24] was > 100 µM. The TGI [26] was > 100 µM, the TGI [27] was > 100 µM and the TGI [28] was > 100 µM. The TGI [29] was > 100 µM, the TGI [30] was > 100 µM and the TGI [31] was > 100 µM. The TGI [32] was > 100 µM, the TGI [33] was > 100 µM and the TGI [34] was > 100 µM. The TGI [35] was > 100 µM, the TGI [36] was > 100 µM and the TGI [37] was > 100 µM. For the same compound, the TGI [38] was > 100 µM, the TGI [39] was > 100 µM and the TGI [40] was > 100 µM. The TGI [41] was > 100 µM, the TGI [42] was > 100 µM and the TGI [43] was > 100 µM. For the same compound, the TGI [44] was > 100 µM, the TGI [45] was > 100 µM and the TGI [46] was > 100 µM. For the same compound, the TGI [47] was > 100 µM, the TGI [48] was > 100 µM and the TGI [49] was > 100 µM. For the same compound, the TGI [50] was > 100 µM, the TGI [51] was > 100 µM and the TGI [52] was > 100 µM. For the same compound, the TGI [53] was > 100 µM.
